In brackets after ≈: the same amount, converted by molar mass. Where two headings read alike, the source gives them in different places. Where a SMILES comes first, the peptide text is derived from it. The star is where a group is joined. Octanoyl = CCCCCCCC(=O)*
Key:
Assay type in all cases: cell-based
[1] = tested on: Staphylococcus aureus (ATCC 29213)
Description: (§1) Antimicrobial and Hemolytic Assays. Antimicrobial susceptibility testing against Staphylococcus aureus (ATCC 29213), Escherichia coli (ATCC 25922), and Pseudomonas aeruginosa (ATCC 27853) was performed using a modification of the National Committee for Clinical Laboratory Standards microdilution broth assay (22). Mueller-Hinton broth (BBL) was used for diluting the peptide stock solution and for diluting the bacterial inoculum. The inoculum was prepared from mid-logarithmic phase cultures. […] The final concentration of peptide solution ranged-from 0.25 to 256 μg/mL in two-fold dilutions. The final concentration of bacteria in the wells was 5×10^5 CFU/mL. Peptides were tested in duplicate. In addition to the test peptide, three standard peptides and a non-treated growth control were included to validate the assay. The microtiter plates were incubated overnight at 37° C. and the absorbance was measured at 600 nm. […] After incubation at 37° C. for 30 min, the suspension was centrifuged at 10,000×g for 10 min and the absorbance at 400 nm was measured.

[2] = tested on: Escherichia coli (ATCC 25922)
Description: as §1

[3] = tested on: Pseudomonas aeruginosa (ATCC 27853)
Description: as §1

Row | Compound | MIC Staph. aureus ([1]; ATCC 29213) [µg/mL] | MIC E. coli ([2]; ATCC 25922) [µg/mL] | MIC Pseud. aerug ([3]; ATCC 27853) [µg/mL] | MIC Staph. aureus ([1]; Table 103) [µg/mL] | MIC E. coli ([2]; Table 103) [µg/mL] | MIC Pseud. aerug ([3]; Table 103) [µg/mL]
1 | CC[C@H](C)[C@H](NC(=O)[C@H](C)NC(=O)CNC(=O)[C@@H](NC(=O)[C@H](CCCCN)NC(=O)[C@H](CCCCN)NC(=O)[C@@H](NC(=O)[C@H](C)NC(=O)CNC(=O)[C@H](Cc1c[nH]c2ccccc12)NC(=O)[C@H](CCCCN)NC(=O)[C@H](CCCCN)NC(=O)[C@@H](NC(=O)[C@H](C)NC(=O)CNC(=O)[C@@H](NC(=O)[C@H](CCCCN)NC(=O)[C@@H](N)CCCCN)[C@@H](C)CC)[C@@H](C)CC)[C@@H](C)CC)[C@@H](C)CC)C(N)=O [1,2-Hex, K K I G A I K K W G A J K K I G A I-NH2] (H-KKIGAIKKWGAIKKIGAI-NH2; N-terminus assumed) | >256 | 128 (≈ 66.6 µM) | 128 (≈ 66.6 µM) |  |  | 
2 | CCCCCCCC(=O)N[C@@H](CCCCN)C(=O)N[C@H](C(=O)NCC(=O)N[C@@H](C)C(=O)N[C@@H](CCCCN)C(=O)N[C@H](C(=O)N[C@@H](CCCCN)C(=O)N[C@@H](Cc1c[nH]c2ccccc12)C(=O)NCC(=O)N[C@@H](C)C(=O)N[C@@H](CCCCN)C(=O)N[C@H](C(=O)N[C@@H](CCCCN)C(=O)N[C@H](C(=O)NCC(=O)N[C@@H](C)C(=O)N[C@@H](CCCCN)C(=O)N[C@H](C(N)=O)[C@@H](C)CC)[C@@H](C)CC)[C@@H](C)CC)[C@@H](C)CC)[C@@H](C)CC [Oct-KIGAKI-18A, Oct- K I G A K I K W G A K I K I G A K I-NH2] (Octanoyl-KIGAKIKWGAKIKIGAKI-NH2) |  |  |  | 4 (≈ 1.95 µM) | 8 (≈ 3.9 µM) | 8 (≈ 3.9 µM)
3 | CCCCCCCC(=O)N[C@@H](CCCCN)C(=O)N[C@H](C(=O)NCC(=O)N[C@@H](C)C(=O)N[C@@H](CCCCN)C(=O)N[C@H](C(=O)N[C@@H](CCCCN)C(=O)N[C@H](C(=O)NCC(=O)N[C@@H](C)C(=O)N[C@@H](CCCCN)C(=O)N[C@H](C(=O)N[C@@H](CCCCN)C(=O)N[C@@H](Cc1c[nH]c2ccccc12)C(=O)NCC(=O)N[C@@H](C)C(=O)N[C@@H](CCCCN)C(=O)N[C@H](C(N)=O)[C@@H](C)CC)[C@@H](C)CC)[C@@H](C)CC)[C@@H](C)CC)[C@@H](C)CC [Oct-KIGAKI-18B, Oct- K I G A K I K I G A K I K W G A K I-NH2] (Octanoyl-KIGAKIKIGAKIKWGAKI-NH2) |  |  |  | 8 (≈ 3.9 µM) | 8 (≈ 3.9 µM) | 8 (≈ 3.9 µM)

Second part, led by results:

Row | MIC Staph. aureus ([1]; ATCC 29213) [µg/mL] | MIC E. coli ([2]; ATCC 25922) [µg/mL] | MIC Pseud. aerug ([3]; ATCC 27853) [µg/mL] | Compound | MIC Staph. aureus ([1]; Table 103) [µg/mL] | MIC E. coli ([2]; Table 103) [µg/mL] | MIC Pseud. aerug ([3]; Table 103) [µg/mL]
4 | >256 | 32 (≈ 16.6 µM) | 64 (≈ 33.3 µM) | CC[C@H](C)[C@H](NC(=O)[C@H](C)NC(=O)[C@H](CCCCN)NC(=O)CNC(=O)[C@@H](NC(=O)[C@H](CCCCN)NC(=O)[C@@H](NC(=O)[C@H](C)NC(=O)[C@H](CCCCN)NC(=O)CNC(=O)[C@H](Cc1c[nH]c2ccccc12)NC(=O)[C@H](CCCCN)NC(=O)[C@@H](NC(=O)[C@H](C)NC(=O)[C@H](CCCCN)NC(=O)CNC(=O)[C@@H](NC(=O)[C@@H](N)CCCCN)[C@@H](C)CC)[C@@H](C)CC)[C@@H](C)CC)[C@@H](C)CC)C(N)=O [1,4-Hex, K I G K A I K W G K A I K I G K A I-NH2] (H-KIGKAIKWGKAIKIGKAI-NH2; N-terminus assumed) |  |  | 
5 | >256 | >256 | >256 | CC[C@H](C)[C@H](NC(=O)[C@H](C)NC(=O)CNC(=O)[C@@H](NC(=O)[C@H](CCCCN)NC(=O)[C@H](CCCCN)NC(=O)[C@@H](NC(=O)[C@H](C)NC(=O)CNC(=O)[C@H](Cc1c[nH]c2ccccc12)NC(=O)[C@H](CCCCN)NC(=O)[C@H](CCCCN)NC(=O)[C@@H](NC(=O)[C@H](C)NC(=O)CNC(=O)[C@@H](NC(=O)[C@@H](N)CCCCN)[C@@H](C)CC)[C@@H](C)CC)[C@@H](C)CC)[C@@H](C)CC)C(=O)N[C@@H](CCCCN)C(N)=O [1,6-Hex, K I G A I K K W G A I K K I G A I K-NH2] (H-KIGAIKKWGAIKKIGAIK-NH2; N-terminus assumed) |  |  | 
